Tested on: Custom Array II Genes
Assay: Custom Array II gene expression, antioxidant alone or + UVB
Type: cell-based

COC1=C(OC)C(=O)C(CCCCCCCCCCO)=C(C)C1=O [Idebenone, 6-(10-hydroxydecyl)-2,3-dimethoxy-5-methyl-1,4-benzoquin-one]
−1.0: CDKN2A (NM_000077) Expression (+ UVB) | COL1A1 (NM_000088) Expression (+ UVB) | NOS3 (NM_000603) Expression (+ UVB) | ACE (NM_000789) Expression (Alone) | CASP9 (NM_001229) Expression (Alone) | CRP (NM_000567) Expression (Alone) | HMOX1 (NM_002133) Expression (Alone) | HSPA1A (NM_005345) Expression (Alone) | HSPA1B (NM_005346) Expression (Alone) | IL1A (NM_000575) Expression (Alone) | IL6 (NM_000600) Expression (Alone) | IMMP1L (NM_144981) Expression (Alone) | PARP3 (NM_005485) Expression (Alone) | POT1 (NM_015450) Expression (Alone) | PPARG (NM_015869) Expression (Alone) | PPARGC1 (NM_013261) Expression (Alone) | SIRT2 (NM_012237) Expression (Alone) | SOD1 (NM_000454) Expression (Alone)
4.7: PARP4 (NM_006437) Expression (+ UVB)
1.1: DUSP2 (NM_004418) Expression (+ UVB) | HGDC (SA_00105) Expression (+ UVB) | IGF1 (NM_000618) Expression (+ UVB) | IL10 (NM_000572) Expression (+ UVB) | IL11 (NM_000641) Expression (+ UVB) | PARP3 (NM_005485) Expression (+ UVB) | SIRT1 (NM_012238) Expression (+ UVB) | TEP1 (NM_007110) Expression (+ UVB) | TINF2 (NM_012461) Expression (+ UVB) | BMP2 (NM_001200) Expression (Alone) | IGF1 (NM_000618) Expression (Alone) | IL10 (NM_000572) Expression (Alone) | NOS2 (NM_000625) Expression (Alone) | PARP4 (NM_006437) Expression (Alone) | RTC (SA_00104) Expression (Alone) | S100A7 (NM_002963) Expression (Alone) | SERPINB (NM_002575) Expression (Alone) | SIRT4 (NM_012240) Expression (Alone) | TEP1 (NM_007110) Expression (Alone) | TERT (NM_198255) Expression (Alone) | TIMM22 (NM_013337) Expression (Alone) | TINF2 (NM_012461) Expression (Alone)
1.6: BCL2 (NM_000633) Expression (+ UVB)
1.5: COX1 (NP_536845) Expression (+ UVB) | IL6 (NM_000600) Expression (+ UVB) | NEIL1 (NM_024608) Expression (Alone)
−1.5: NFKB1 (NM_003998) Expression (Alone)
−1.6: IFI44 (NM_006417) Expression (Alone)
1.8: HBEGF (NM_001945) Expression (+ UVB)
1.0: BCL2L1 (NM_138578) Expression (+ UVB) | CASP9 (NM_001229) Expression (+ UVB) | CRP (NM_000567) Expression (+ UVB) | CYP19A1 (NM_000103) Expression (+ UVB) | DDC (NM_000790) Expression (+ UVB) | EGF (NM_001963) Expression (+ UVB) | HLA-DRA (NM_019111) Expression (+ UVB) | HMOX1 (NM_002133) Expression (+ UVB) | IFI44 (NM_006417) Expression (+ UVB) | IGF2 (NM_000612) Expression (+ UVB) | IL1A (NM_000575) Expression (+ UVB) | IL8 (NM_000584) Expression (+ UVB) | KL (NM_004795) Expression (+ UVB) | KRAS (NM_004985) Expression (+ UVB) | MMP1 (NM_002421) Expression (+ UVB) | NEIL1 (NM_024608) Expression (+ UVB) | NOS2 (NM_000625) Expression (+ UVB) | PARP1 (NM_001618) Expression (+ UVB) | PPC (SA_00103) Expression (+ UVB) | SERPINB (NM_002575) Expression (+ UVB) | SIRT4 (NM_012240) Expression (+ UVB) | SOD2 (NM_000636) Expression (+ UVB) | TPP1 (NM_000391) Expression (+ UVB) | ACTB (NM_001101) Expression (Alone) | APOE (NM_000041) Expression (Alone) | BCL2L1 (NM_138578) Expression (Alone) | CASP2 (NM_032982) Expression (Alone) | CCL4L1 (NM_001001435) Expression (Alone) | CDKN2A (NM_000077) Expression (Alone) | CLK1 (NM_004071) Expression (Alone) | COL1A1 (NM_000088) Expression (Alone) | COX1 (NP_536845) Expression (Alone) | CREBBP (NM_004380) Expression (Alone) | DDC (NM_000790) Expression (Alone) | DUSP2 (NM_004418) Expression (Alone) | EGF (NM_001963) Expression (Alone) | EGR2 (NM_000399) Expression (Alone) | FOS (NM_005252) Expression (Alone) | FOXO3 (NM_001455) Expression (Alone) | GCH1 (NM_000161) Expression (Alone) | GH1 (NM_000515) Expression (Alone) | GPX1 (NM_000581) Expression (Alone) | HBEGF (NM_001945) Expression (Alone) | HLA-DRA (NM_019111) Expression (Alone) | HSPA1L (NM_005527) Expression (Alone) | IGF2 (NM_000612) Expression (Alone) | JUN (NM_002228) Expression (Alone) | KL (NM_004795) Expression (Alone) | MAPK14 (NM_001315) Expression (Alone) | MMP1 (NM_002421) Expression (Alone) | NOS3 (NM_000603) Expression (Alone) | PARP9 (NM_031458) Expression (Alone) | PPC (SA_00103) Expression (Alone) | TERF2 (NM_005652) Expression (Alone) | TOMM40 (NM_006114) Expression (Alone)
−1.2: APOE (NM_000041) Expression (+ UVB) | COL3A1 (NM_000090) Expression (+ UVB) | GADPH (NM_002046) Expression (+ UVB) | PPARG (NM_015869) Expression (+ UVB) | PPARGC1 (NM_013261) Expression (+ UVB) | RAP1A (NM_002884) Expression (+ UVB) | SIRT3 (NM_012239) Expression (+ UVB) | TGFB1 (NM_000660) Expression (+ UVB) | IL8 (NM_000584) Expression (Alone) | PTGS2 (NM_000963) Expression (Alone) | SIRT1 (NM_012238) Expression (Alone) | SOD2 (NM_000636) Expression (Alone)
1.9: NOS1 (NM_000620) Expression (Alone)
−1.8: HSPA6 (NM_002155) Expression (+ UVB) | TOMM40 (NM_006114) Expression (+ UVB)
−2.6: TNF (NM_000594) Expression (+ UVB)
−1.3: CASP2 (NM_032982) Expression (+ UVB) | FOXO3 (NM_001455) Expression (+ UVB) | HSPA1A (NM_005345) Expression (+ UVB) | HSPA1B (NM_005346) Expression (+ UVB) | TERT (NM_198255) Expression (+ UVB) | TIMP3 (NM_000362) Expression (+ UVB) | TP53 (NM_000546) Expression (+ UVB) | UBE2S (NM_014501) Expression (+ UVB) | VEGFA (NM_003376) Expression (+ UVB) | KIT (NM_000222) Expression (Alone)
1.7: EGR2 (NM_000399) Expression (+ UVB)
2.3: IL33 (NM_033439) Expression (+ UVB)
−1.7: BMP2 (NM_001200) Expression (+ UVB) | GCH1 (NM_000161) Expression (+ UVB) | VEGFA (NM_003376) Expression (Alone)
1.4: KIT (NM_000222) Expression (+ UVB) | CYP19A1 (NM_000103) Expression (Alone)
1.3: BAX (NM_004324) Expression (+ UVB) | GH1 (NM_000515) Expression (+ UVB) | HPRT1 (NM_000194) Expression (+ UVB) | PTGS2 (NM_000963) Expression (+ UVB) | S100A7 (NM_002963) Expression (+ UVB) | BAX (NM_004324) Expression (Alone) | GADPH (NM_002046) Expression (Alone) | PARP1 (NM_001618) Expression (Alone) | PARP2 (NM_005484) Expression (Alone) | RAP1A (NM_002884) Expression (Alone)
−1.4: FOS (NM_005252) Expression (+ UVB) | MAPK14 (NM_001315) Expression (+ UVB) | KRAS (NM_004985) Expression (Alone) | SHC1 (NM_003029) Expression (Alone)
1.2: CCL4L1 (NM_001001435) Expression (+ UVB) | IMMP1L (NM_144981) Expression (+ UVB) | NOS1 (NM_000620) Expression (+ UVB) | PARP2 (NM_005484) Expression (+ UVB) | PDGFRL (NM_006207) Expression (+ UVB) | POT1 (NM_015450) Expression (+ UVB) | RTC (SA_00104) Expression (+ UVB) | BCL2 (NM_000633) Expression (Alone) | HGDC (SA_00105) Expression (Alone) | HPRT1 (NM_000194) Expression (Alone) | NADSYN1 (NM_018161) Expression (Alone) | TIMP3 (NM_000362) Expression (Alone) | UBE2S (NM_014501) Expression (Alone)
−1.1: ACE (NM_000789) Expression (+ UVB) | ACTB (NM_001101) Expression (+ UVB) | CLK1 (NM_004071) Expression (+ UVB) | CREBBP (NM_004380) Expression (+ UVB) | GPX1 (NM_000581) Expression (+ UVB) | HSPA1L (NM_005527) Expression (+ UVB) | JUN (NM_002228) Expression (+ UVB) | NADSYN1 (NM_018161) Expression (+ UVB) | NFKB1 (NM_003998) Expression (+ UVB) | PARP9 (NM_031458) Expression (+ UVB) | SHC1 (NM_003029) Expression (+ UVB) | SIRT2 (NM_012237) Expression (+ UVB) | SOD1 (NM_000454) Expression (+ UVB) | TERF2 (NM_005652) Expression (+ UVB) | TIMM22 (NM_013337) Expression (+ UVB) | COL3A1 (NM_000090) Expression (Alone) | HSPA6 (NM_002155) Expression (Alone) | IL11 (NM_000641) Expression (Alone) | IL33 (NM_033439) Expression (Alone) | PDGFRL (NM_006207) Expression (Alone) | SIRT3 (NM_012239) Expression (Alone) | TGFB1 (NM_000660) Expression (Alone) | TNF (NM_000594) Expression (Alone) | TP53 (NM_000546) Expression (Alone) | TPP1 (NM_000391) Expression (Alone)
